Article PMC10569036

Assay: shake flask on a mixture of 185; loss from the water phase only; LC-QTOF peak areas
Details: room

Structure (SMILES)	log partition 1-octanol / HPLC water, unbuffered, traces of methanol / DMSO	log partition butyl acetate / HPLC water, unbuffered, traces of methanol / DMSO	log partition chloroform / HPLC water, unbuffered, traces of methanol / DMSO	log partition cyclohexane / HPLC water, unbuffered, traces of methanol / DMSO	log partition dichloromethane / HPLC water, unbuffered, traces of methanol / DMSO	log partition n-hexane / HPLC water, unbuffered, traces of methanol / DMSO	log partition n-octane / HPLC water, unbuffered, traces of methanol / DMSO	log partition n-undecane / HPLC water, unbuffered, traces of methanol / DMSO	log partition oleylalcohol / HPLC water, unbuffered, traces of methanol / DMSO	log partition toluene / HPLC water, unbuffered, traces of methanol / DMSO
Oc1c(Cl)cc(Cl)cc1Sc1cc(Cl)cc(Cl)c1O	0.7477 log10	1.778 log10	1.227 log10	1.174 log10	1.541 log10	1.101 log10	1.178 log10	0.844 log10	1.386 log10	1.7 log10

Assay: shake flask on a mixture of 185; loss from the water phase only; LC-Orbitrap peak areas
Details: room

Structure (SMILES)	log partition 1-octanol / HPLC water, unbuffered, traces of methanol / DMSO	log partition butyl acetate / HPLC water, unbuffered, traces of methanol / DMSO	log partition chloroform / HPLC water, unbuffered, traces of methanol / DMSO	log partition cyclohexane / HPLC water, unbuffered, traces of methanol / DMSO	log partition dichloromethane / HPLC water, unbuffered, traces of methanol / DMSO	log partition n-hexane / HPLC water, unbuffered, traces of methanol / DMSO	log partition n-octane / HPLC water, unbuffered, traces of methanol / DMSO	log partition n-undecane / HPLC water, unbuffered, traces of methanol / DMSO	log partition oleylalcohol / HPLC water, unbuffered, traces of methanol / DMSO	log partition toluene / HPLC water, unbuffered, traces of methanol / DMSO
CCCCc1ccc(O)cc1	-0.1262 log10	-0.005316 log10	-0.1217 log10	-0.5302 log10	0.2438 log10	-0.849 log10	-0.6939 log10	-0.8247 log10	-0.3004 log10	-0.3739 log10
Oc1c(Cl)ccc(Cl)c1Cl	-0.2337 log10	-1.606 log10	0.7523 log10	0.2263 log10	-0.3412 log10	-0.04129 log10	0.4223 log10	-0.1707 log10	-0.8397 log10	-0.4023 log10
NC(=O)N/N=C/c1ccc([N+](=O)[O-])o1	1.712 log10	0.5487 log10	0.2279 log10		0.3361 log10				0.1785 log10	-0.2455 log10
CCCCCCCCCCCCN1CCCCCC1=O	-0.1202 log10	-1.099 log10	0.3816 log10	-0.5564 log10	-0.008559 log10	-0.8813 log10	-0.4901 log10	-0.9092 log10	-0.7875 log10	-0.5083 log10
CC(C)(C)c1ccc(O)c(O)c1	0.06578 log10	-0.6544 log10	0.08964 log10	-0.4267 log10	-0.4317 log10	-0.4698 log10	-0.4633 log10	-0.5006 log10	-0.3469 log10	-0.3594 log10
CCCCCCC(O)CCCCCCCCCCC(=O)OC (centres unmarked)	-0.3995 log10	-0.5958 log10	-0.2735 log10	-0.4754 log10	-1.47 log10	-1.341 log10	-1.53 log10	-1.718 log10	-0.7143 log10	-1.19 log10
Nc1ccc(/N=N/c2ccccc2)cc1	1.65 log10	1.2 log10	1.001 log10	1.333 log10	1.434 log10	1.192 log10	1.439 log10	1.239 log10	1.015 log10	0.9966 log10
OC(c1ccc(F)cc1)(c1cncnc1)c1ccccc1Cl (centres unmarked)	2.087 log10	2.226 log10	2.317 log10	2.077 log10	2.933 log10	1.642 log10	1.699 log10	1.456 log10	1.561 log10	2.565 log10
COc1ccccc1/C=C/C=O	1.387 log10	0.7851 log10	0.6596 log10	-0.3102 log10	0.6345 log10	0.495 log10	-0.2565 log10	-0.1964 log10	-0.5567 log10	0.2589 log10
CCCN(CCC)c1c([N+](=O)[O-])cc(C(C)C)cc1[N+](=O)[O-]	1.667 log10	0.7238 log10	0.1749 log10	-0.3058 log10	-0.415 log10	0.4636 log10	-0.4473 log10	-0.3356 log10	0.7657 log10	0.0275 log10
FC(F)C(F)(F)OCC(Cn1cncn1)c1ccc(Cl)cc1Cl (centres unmarked)	1.148 log10	1.223 log10	0.6534 log10	0.9109 log10	1.238 log10	0.4737 log10	0.5004 log10	0.1193 log10	0.4709 log10	1.159 log10
